According to ChEMBL document CHEMBL4699566, “Pharmacophore modeling, design, and synthesis of potent antihypertensives, oxazolo/thiazolo-[3,2-a]-pyrimidin-3(2H)-one, and 1,5-dihydroimidazo-[1,2-a]-pyrimidin-3(2H)-one derivatives: A pilot trial” (2020):

Key:
Type in all cases: functional
[1] = tested on: Rattus norvegicus; test: Antihypertensive activity in spontaneously hypertensive rat assessed as reduction in mean arterial blood pressure at 1.5 mg/kg, po measured after 6 hrs
[2] = tested on: Rattus norvegicus; test: Antihypertensive activity in spontaneously hypertensive rat assessed as reduction in mean arterial blood pressure at 1.5 mg/kg, po measured after 12 hrs
[3] = tested on: Rattus norvegicus; test: Antihypertensive activity in spontaneously hypertensive rat assessed as reduction in mean arterial blood pressure at 3 mg/kg, po measured after 6 hrs
[4] = tested on: Rattus norvegicus; test: Antihypertensive activity in spontaneously hypertensive rat assessed as reduction in mean arterial blood pressure at 3 mg/kg, po measured after 12 hrs
[5] = tested on: Rattus norvegicus; test: Antihypertensive activity in spontaneously hypertensive rat assessed as reduction in mean arterial blood pressure at 3 mg/kg, po measured after 6 hrs relative to nifedipine; design: scale not given: the % may be the effect or the level left
[6] = tested on: Rattus norvegicus; test: Antihypertensive activity in spontaneously hypertensive rat assessed as reduction in mean arterial blood pressure at 1.5 mg/kg, po measured after 6 hrs relative to nifedipine; design: scale not given: the % may be the effect or the level left
[7] = tested on: Rattus norvegicus; test: Antihypertensive activity in spontaneously hypertensive rat assessed as reduction in mean arterial blood pressure at 1.5 mg/kg, po measured after 12 hrs relative to nifedipine; design: scale not given: the % may be the effect or the level left
[8] = tested on: Rattus norvegicus; test: Antihypertensive activity in spontaneously hypertensive rat assessed as reduction in mean arterial blood pressure at 3 mg/kg, po measured after 12 hrs relative to nifedipine; design: scale not given: the % may be the effect or the level left

Row | SMILES | Activity [1] | Activity [2] | Activity [3] | Activity [4] | Activity [5] | Activity [6] | Activity [7] | Activity [8]
1 | CCOC(=O)C1=C(C)N=C2NC(C)C(=O)N2C1c1cccc(C)c1 (centres undefined) | 5.5 mmHg | 11.51 mmHg | 18 mmHg | 24.65 mmHg | 95.46% | 79.78% | 92.95% | 92.02%
2 | CCOC(=O)C1=C(C)N=C2SC(C)C(=O)N2C1c1ccccc1O (centres undefined) | 0.58 mmHg | 1.29 mmHg | 4.47 mmHg | 9.18 mmHg |  |  |  | 
3 | CCOC(=O)C1=C(C)N=C2OC(C)C(=O)N2C1c1cccc([N+](=O)[O-])c1 (centres undefined) | 2.01 mmHg | 4.1 mmHg | 8.19 mmHg | 15.16 mmHg |  |  |  | 
4 | CCOC(=O)C1=C(C)N=C2NC(C)C(=O)N2C1c1ccccc1 (centres undefined) | 5.96 mmHg | 12.39 mmHg | 18.1 mmHg | 25.38 mmHg | 95.46% | 79.78% | 92.95% | 92.02%
5 | CCOC(=O)C1=C(C)N=C2OC(C)C(=O)N2C1c1ccc([N+](=O)[O-])cc1 (centres undefined) | 1.8 mmHg | 2.59 mmHg | 7.22 mmHg | 12.97 mmHg |  |  |  | 
6 | CCOC(=O)C1=C(C)N=C2SC(C)C(=O)N2C1c1ccc(C)c(C)c1 (centres undefined) | 1.62 mmHg | 2.2 mmHg | 5.76 mmHg | 8.24 mmHg |  |  |  | 
7 | CCOC(=O)C1=C(C)N=C2SC(C)C(=O)N2C1c1cccc(Cl)c1 (centres undefined) | 1.16 mmHg | 1.41 mmHg | 5.37 mmHg | 7.2 mmHg |  |  |  | 
8 | CCOC(=O)C1=C(C)N=C2OC(C)C(=O)N2C1c1ccccc1 (centres undefined) | 1.12 mmHg | 1.82 mmHg | 6.04 mmHg | 10.9 mmHg |  |  |  | 
9 | COC(=O)C1=C(C)NC(C)=C(C(=O)OC)C1c1ccccc1[N+](=O)[O-] [NIFEDIPINE] | 7.47 mmHg | 13.33 mmHg | 18.96 mmHg | 27.58 mmHg |  |  |  | 
